Measured values reported in publication PMC7037682, “Herb–Drug Interaction of Red Ginseng Extract and Ginsenoside Rc with Valsartan in Rats” (Molecules, 2020).

How the values were obtained:
in vivo [1] = conditions: rat, iv, 1 mg/kg
Experimental: (§1) The rats were randomly divided into the control and rifampin groups. […] Quantification was performed in the selected reaction-monitoring mode at m/z 436.1 → 291.0 for valsartan and m/z 336.1 → 320.0 for berberine. […] The intraday and interday precision ranged from 1.80% to 9.23%.

OATP1B1 = target: T1, OATP1B1 (Homo sapiens, UniProt Q9Y6L6); experiment: Valsartan uptake by HEK293-OATP1B1 cells versus mock cells; assay type: cell-based; design: host or cells: HEK293; conditions: 5 μM valsartan
T1 sequence (Q9Y6L6 1-691): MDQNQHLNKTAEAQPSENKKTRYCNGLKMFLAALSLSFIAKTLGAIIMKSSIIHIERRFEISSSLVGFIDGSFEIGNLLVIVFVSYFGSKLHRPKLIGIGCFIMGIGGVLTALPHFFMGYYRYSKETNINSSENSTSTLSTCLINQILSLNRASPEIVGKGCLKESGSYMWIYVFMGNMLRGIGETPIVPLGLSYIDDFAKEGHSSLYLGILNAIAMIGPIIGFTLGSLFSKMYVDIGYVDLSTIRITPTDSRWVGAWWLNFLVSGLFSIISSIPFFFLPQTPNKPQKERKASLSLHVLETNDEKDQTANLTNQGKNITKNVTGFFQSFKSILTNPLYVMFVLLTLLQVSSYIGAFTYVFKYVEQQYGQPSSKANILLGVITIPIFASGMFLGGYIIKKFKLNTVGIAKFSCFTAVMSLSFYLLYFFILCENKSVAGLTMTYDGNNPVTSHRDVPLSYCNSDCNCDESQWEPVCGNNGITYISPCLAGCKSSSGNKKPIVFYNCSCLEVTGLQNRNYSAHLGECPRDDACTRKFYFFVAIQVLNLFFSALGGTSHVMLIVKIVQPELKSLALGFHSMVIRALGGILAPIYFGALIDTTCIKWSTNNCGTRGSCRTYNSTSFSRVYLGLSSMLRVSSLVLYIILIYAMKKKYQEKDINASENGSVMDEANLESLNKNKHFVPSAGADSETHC
Experimental: (§2) The uptake of valsartan 5 (μM)was measured for 5 min immediately after adding aliquots (100 μL) of HBSS containing 5 μM valsartan in the presence or absence of rifampin (1–100 μM) or tri-glycosylated PPD-type ginsenosides (Rb1, Rb2, and Rc; 0.1–100 μM) to the HEK293-mock cells and HEK293-OATP1B1 and –OAPT1B3 cells after aspirating pre-incubated HBSS. […] After the centrifugation of cell lysate samples (16,000× g, 5 min, 4 °C), aliquots (4 μL) of cell lysate samples were injected into LC-MS/MS system for the analysis of valsartan. Transporter mediated uptake of probe substrates or valsartan was calculated by subtracting the uptake rate of probe substrates or valsartan into HEK293-mock cells from that into HEK293 cells expressing respective transporters.

in vivo [2] = conditions: rat, iv, 1 mg/kg; remark: listed apart in the source
Experimental: Quantification was performed in the selected reaction-monitoring mode at m/z 436.1 → 291.0 for valsartan and m/z 336.1 → 320.0 for berberine. […] The intraday and interday precision ranged from 1.80% to 9.23%.

OATP1B3 = target: T2, OATP1B3 (Homo sapiens, UniProt Q9NPD5); experiment: Valsartan uptake by HEK293-OATP1B3 cells versus mock cells; assay type: cell-based; design: host or cells: HEK293; conditions: 5 μM valsartan
T2 sequence (Q9NPD5 1-702): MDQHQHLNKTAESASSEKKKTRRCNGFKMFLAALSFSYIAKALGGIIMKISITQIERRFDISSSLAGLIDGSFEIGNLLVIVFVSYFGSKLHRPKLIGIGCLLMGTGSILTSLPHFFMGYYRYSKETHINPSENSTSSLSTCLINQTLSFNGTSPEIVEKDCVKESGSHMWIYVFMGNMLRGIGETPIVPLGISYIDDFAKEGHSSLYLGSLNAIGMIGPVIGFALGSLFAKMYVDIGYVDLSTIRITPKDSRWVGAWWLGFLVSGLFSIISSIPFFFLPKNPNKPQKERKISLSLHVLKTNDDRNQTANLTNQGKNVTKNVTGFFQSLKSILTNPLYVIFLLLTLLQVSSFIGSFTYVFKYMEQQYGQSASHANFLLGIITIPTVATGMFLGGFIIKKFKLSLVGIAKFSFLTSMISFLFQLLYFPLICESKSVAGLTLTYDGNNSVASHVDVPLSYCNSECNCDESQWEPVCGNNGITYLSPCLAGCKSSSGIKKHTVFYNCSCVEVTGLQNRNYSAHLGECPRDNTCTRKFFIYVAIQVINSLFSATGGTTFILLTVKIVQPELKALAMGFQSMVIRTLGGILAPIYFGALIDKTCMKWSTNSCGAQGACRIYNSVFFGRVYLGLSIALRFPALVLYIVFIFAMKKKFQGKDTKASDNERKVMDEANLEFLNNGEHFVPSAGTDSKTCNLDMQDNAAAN
Experimental: as §2

Oatps = conditions: rats ref 29, 30; cited from earlier work
[3] = Pharmacokinetics of iv valsartan in rats with or without repeated iv Rc; assay type: in vivo; conditions: rat, plasma, 1 mg/kg, valsartan 1 mg/kg iv; for AUC(0-t): read-out: AUC24h
Experimental: as §1, with “Rc” for “rifampin”, “groups. The Rc group was injected with Rc solution (3 mg/mL/kg, dissolved in saline) intravenously via the tail vein for 5 consecutive days. The control group received saline (1 mL/kg) for 5 consecutive days via the tail vein.” for “groups.”

OATP1B1 and OATP1B3 = conditions: human ref 29, 30; cited from earlier work
UGT1A9 = conditions: cited from earlier work
[4] = Plasma pharmacokinetics of ginsenosides in rats after 1-week repeated RGE; conditions: LC-MS/MS, after RGE 1.5 g/kg/day po for 1 week
Experimental: The rats were randomly divided into the control and RGE groups. The RGE group received a RGE suspension (1.5 g/mL/kg/day, in distilled water) for 7 days via oral gavage. The control group received distilled water for 7 days via oral gavage. After 1 h following the last RGE treatment, valsartan was injected intravenously to both groups via the tail vein at 1 mg/mL/kg (dissolved in DMSO: saline = 2:8, v/v). […] After centrifugation of the blood samples at 16,000× g for 10 min, aliquots (50 μL each) of plasma samples were stored at −80 °C until the analysis of ginsenosides and valsartan.
The residue was reconstituted with 100 μL of 70% methanol consisting of 0.1% formic acid. An aliquot (20 μL) from the sample was injected into the LC-MS/MS system.
After freezing the aqueous layer at −80 °C for 2 h, the upper organic layer was transferred to a clean tube and evaporated to dryness. […] An aliquot (20 μL) from the sample was injected into the LC-MS/MS system. The samples were eluted through an Omega Polar C18 column (2.1 mm × 100 mm, 3 µm particle size) (Phenomenex, Torrance, CA, USA) using a mobile phase consisting of 0.1% formic acid in water: 0.1% formic acid in methanol (15:85, v/v) at a flow rate of 0.2 mL/min.
Pharmacokinetic parameters were calculated from plasma concentration-time profile using non-compartment analysis of WinNonlin (version 5.1; Pharsights, Cary, NC, USA). The statistical significance was assessed by t-test using Statistical Package for the Social Sciences (version 24.0; SPSS Inc., Chicago, IL, USA).

[5] = after Rc 3 mg/kg/day iv for 5 days

Question: Which C0 (in vivo [1]) does the source give for `CCCCC(=O)N(Cc1ccc(-c2ccccc2-c2nnn[nH]2)cc1)[C@H](C(=O)O)C(C)C` [Valsartan, valsartan] here?
Answer: 1.63308 ± 1.30867 µg/mL

Question: And the MRT (in vivo [1])?
Answer: 3.37 ± 0.83 h

Question: And the T1/2 (in vivo [1])?
Answer: 2.79 ± 0.32 h

Question: And the Vd (in vivo [1])?
Answer: 0.05503 ± 0.02629 L/kg

Question: And the C0 (in vivo [1]; C0)?
Answer: 1.17 ± 0.119 µg/mL

Question: What about the clearance (in vivo [1]; CL) of the same compound?
Answer: 1.56 ± 0.378 L/h/kg

Question: And the MRT (in vivo [1]; MRT)?
Answer: 2.99 ± 0.47 h

Question: What about the half-life (in vivo [1]; T1/2) of the same compound?
Answer: 4.48 ± 1.24 h

Question: What about the Vd (in vivo [1]; Vd) of the same compound?
Answer: 4.7 ± 1.54 L/kg

Question: What about the “Valsartan uptake increase, HEK293-OATP1B1 vs HEK293-mock” value (OATP1B1) of the same compound?
Answer: 19.8 fold

Question: What about the AUC24h (in vivo [2]) of the same compound?
Answer: 0.77659 ± 0.22882 µg·h/mL

Question: What about the C0 (in vivo [2]) of the same compound?
Answer: 0.78147 ± 0.21104 µg/mL

Question: What about the MRT (in vivo [2]) of the same compound?
Answer: 3.81 ± 0.05 h

Question: And the T1/2 (in vivo [2])?
Answer: 4.59 ± 0.73 h

Question: What about the Vd (in vivo [2]) of the same compound?
Answer: 0.08538 ± 0.02582 L/kg

Question: And the AUC(0-t) (in vivo [2]; AUC24h)?
Answer: 0.859 ± 0.234 µg·h/mL

Question: And the AUC(0-inf) (in vivo [2]; AUC∞)?
Answer: 0.882 ± 0.247 µg·h/mL

Question: And the C0 (in vivo [2]; C0)?
Answer: 0.648 ± 0.0505 µg/mL

Question: And the clearance (in vivo [2]; CL)?
Answer: 1.2 ± 0.329 L/h/kg

Question: And the MRT (in vivo [2]; MRT)?
Answer: 3.76 ± 1.16 h

Question: And the half-life (in vivo [2]; T1/2)?
Answer: 4.55 ± 0.98 h

Question: What about the Vd (in vivo [2]; Vd) of the same compound?
Answer: 4.33 ± 0.922 L/kg

Question: What about the “Valsartan uptake increase, HEK293-OATP1B3 vs HEK293-mock” value (OATP1B3) of the same compound?
Answer: 26.1 fold

Question: And the “contribution of Oatp transporters in the hepato-biliary excretion” value (Oatps)?
Answer: 70–85%

Question: What about the AUC(0-inf) [3, 5] of the same compound?
Answer: 0.836 ± 0.112 µg·h/mL

Question: What about the C0 [3, 5] of the same compound?
Answer: 1.45 ± 0.998 µg/mL

Question: What about the MRT [3, 5] of the same compound?
Answer: 2.94 ± 1.52 h

Question: What about the Vd [3, 5] of the same compound?
Answer: 3.46 ± 1.64 L/kg

Question: And the clearance [3, 5]?
Answer: 1.21 ± 0.172 L/h/kg

Question: What about the half-life [3, 5] of the same compound?
Answer: 3.3 ± 1.51 h

Question: What about the AUC(0-t) [3, 5] of the same compound?
Answer: 0.809 ± 0.112 µg·h/mL

Question: And the AUC(0-inf) ([3]; control group of Rc study)?
Answer: 0.657 ± 0.0849 µg·h/mL

Question: And the C0 ([3]; control group of Rc study)?
Answer: 0.401 ± 0.0779 µg/mL

Question: And the MRT ([3]; control group of Rc study)?
Answer: 2.27 ± 0.67 h

Question: And the Vd ([3]; control group of Rc study)?
Answer: 3.43 ± 0.794 L/kg

Question: What about the clearance ([3]; control group of Rc study) of the same compound?
Answer: 1.54 ± 0.21 L/h/kg

Question: What about the half-life ([3]; control group of Rc study) of the same compound?
Answer: 2.41 ± 1.3 h

Question: And the AUC(0-t) ([3]; control group of Rc study)?
Answer: 0.639 ± 0.0807 µg·h/mL

Question: What about the “contribution of Oatp transporters in the hepato-biliary excretion” value (OATP1B1 and OATP1B3) of the same compound?
Answer: 70–85%

Question: With `CC(C)=CCC[C@](C)(O)[C@H]1CC[C@]2(C)[C@@H]1[C@H](O)C[C@@H]1[C@@]3(C)CC[C@H](O)C(C)(C)[C@@H]3[C@@H](O[C@@H]3O[C@H](CO)[C@@H](O)[C@H](O)[C@H]3O[C@@H]3O[C@H](CO)[C@@H](O)[C@H](O)[C@H]3O)C[C@]12C` [Rf] as the compound, how does the “IC50 UGT1A9” value (UGT1A9) read?
Answer: did not inhibit

Question: With `CC(C)=CCC[C@](C)(O[C@@H]1O[C@H](CO)[C@@H](O)[C@H](O)[C@H]1O)[C@H]1CC[C@]2(C)[C@@H]1[C@H](O)C[C@@H]1[C@@]3(C)CC[C@H](O[C@@H]4O[C@H](CO)[C@@H](O)[C@H](O)[C@H]4O)C(C)(C)[C@@H]3CC[C@]12C` [F2] as the compound, how does the “detection in rat plasma” value [4] read?
Answer: not detected

Question: With `CC(C)=CCC[C@](C)(O[C@@H]1O[C@H](CO)[C@@H](O)[C@H](O)[C@H]1O)[C@H]1CC[C@]2(C)[C@@H]1[C@H](O)C[C@@H]1[C@@]3(C)CC[C@H](O)C(C)(C)[C@@H]3[C@@H](O)C[C@]12C` [F1] as the compound, how does the “IC50 UGT1A9” value (UGT1A9) read?
Answer: did not inhibit

Question: And the “detection in rat plasma” value [4]?
Answer: not detected
